Each structure is given as a SMILES string. Where a name gives a salt, the structure may show the parent alone. Read-outs that look alike come from different tables or passages of the source.

The subject of one test is Granta-519 cells. In words: Cell proliferation assay on Granta-519 cells (CCK-8, day 10). Format: cell-based. The following applies: Homo sapiens. As to the method:
Cell Proliferation Assay to Determine IC50 on Granta-519 Cells
Granta-519 cells were maintained in PRMI 1640 (Corning Cellgro, Catalog #: 10-040-CV) medium supplemented with 10% v/v FBS (GE Healthcare, Catalog #: SH30910.03). Compounds were dissolved in DMSO to make 10 mM stocks and stored at −20° C. Nine-point, 3-fold serial dilutions were made with DMSO with top concentration at 1 mM (working stocks).
On day of experiment, compound working stocks were further diluted at 1:50 with fresh medium in 96 well plate, and 10 μL of diluted drugs were added to a new 96 well plate for proliferation assay. Cells growing at exponential phase were spun down at 1500 rpm for 4 min and resuspend in fresh medium to reach a density of 0.5×10^6 cells/ml. 200 ul of cells were added to 96 well plate containing diluted drugs and incubated for 3 days. DMSO was used a vehicle control.
One day 3, 10 μL of Cell Counting Kit-8 (CCK-8, Jojindo, CK04-13) solution was added to a new 96 well plate. Cells incubated with drugs for 3 days were resuspended by pipetting up and down, and 100 μL of cells were transferred to 96 well plate containing CCK-8 reagent to measure viable cells. Plates were incubated in C02 incubator for 2 hours and OD450 values were measured with a microplate reader (iMark microplate reader, Bio-Rad).
For re-plating, compound working stocks were diluted at 1:50 with fresh medium and 10 μL of diluted drugs were added to anew 96 well plate. Cells from Day 3plate (50 ul) were added to 96 well plate containing fresh drug and additional 150 of fresh medium was added to reach 200 ul volume. Plate was returned to CO2incubator and incubated for 3more days. Viable cells measurement and re-plating were repeated on day 6, and the final viable cells measurement was taken on day 10.
Percentage of viable cells, relative to DMSO vehicle control, were calculated and plotted in Graphpad Prism ([Inhibitor] vs. normalized response-Variable slope) to determine proliferation IC50 values on day 10.

The test system of test [1] is Symmetric Di-Methyl Arginine (sDMA) in Granta-519 cells. In words: Western blot for symmetric di-methyl arginine (sDMA) marks in Granta cells, 3 days treatment. Format: cell-based. The following applies: Homo sapiens, 3 days. As for the experimental part:
Cell Treatment and Western Blotting for Detecting Symmetric Di-Methyl Arginine (sDMA) and Histone H3R8 Dimethyl Symmetric (H3R8me2s) Marks
Initial compounds screening in A549 cells: Compounds were dissolved in DMSO to make 10 mM stock and further diluted to 0.1, and 1 mM. A549 cells were maintained in PRMI 1640 (Corning Cellgro, Catalog #: 10-040-CV) medium supplemented with 10% v/v FBS (GE Healthcare, Catalog #: SH30910.03). One day before experiment, 1.25×10^5 cells were seeded in 6 well plate in 3 mL medium and incubated overnight. The next day, medium was changed and 3 uL of compound solution was added (1:1,000 dilution, 0.1 and 1 uM final concentration; DMSO concentration: 0.1%), and incubated for 3 days. Cells incubated with DMSO was used as a vehicle control. Cells were washed once with PBS, trypsinized in 150 uL 0.25% Trypsin (Corning, Catalog #: 25-053-CI), neutralized with 1 mL complete medium, transferred to microcentrifuge tubes and collected. Cell pellet was then resuspended in 15 uL PBS, lysed in 4% SDS, and homogenized by passing through homogenizer column (Omega Biotek, Catalog #: HCR003). Total protein concentrations were determined by BCA assay (ThermoFisher Scientific, Catalog #: 23225). Lysates were mixed with 5× Laemmli buffer and boiled for 5 min. Forty ug of total protein was separated on SDS-PAGE gels (Bio-Rad, catalog #: 4568083, 4568043), transferred to PVDF membrane, blocked with 5% dry milk (Bio-Rad, Catalog #: 1706404) in TBS with 0.1% v/v Tween 20 (TBST) for 1 hour at room temperature (RT), and incubated with primary antibodies (sDMA: Cell signaling, Catalog #: 13222, 1:3,000; H3R8me2s: Epigentek, Catalog #: A-3706-100, 1:2,000; β-Actin: Abcam, Catalog #: ab8227, 1:10,000) in 5% dry milk in TBST at 4° C. for overnight. The next day, membranes were washed with TBST, 5×5 min, and incubated withhP conjugated seconded antibody (GE Healthcare; Catalog #: NA934-1ML; 1:5,000) for 2 hours at RT, followed by 5×5 min washes with TBST, and incubation with ECL substrates (Bio-Rad, Catalog #: 1705061, 1705062). Chemiluminescent signal was captured with FluoChem HD2 imager (Proteinsimple) and analyzed by ImageJ.
Cells incubated with DMSO was used as a vehicle control. Cells were harvested and subjected to western blot analysis as described above. SmD3me2s and H3R8me2s bands were quantified by ImageJ. Signals were normalized to β-Actin and DMSO control. IC50 values were calculated using Graphpad Prism.
On the technique in general: In western blotting, separated proteins are transferred to a membrane and probed.

The target of the next test is PRMT5/MEP50 complex (Homo sapiens (Human), UniProt O14744). As to the kind of experiment: Biochemical assay: PRMT5/MEP50 methylation of histone H2A with 3H-SAM, filter plate scintillation. An outline of the steps:
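5 nM PRMT5/MEP50 preincubated with compound 15–20 min at room temperature, with 5 μM histone H2A as substrate; reaction started with 1 μM 3H-SAM and run 60 min at 30 °C. TCA-stopped, filter-captured methylation counted by scintillation; IC50 from 4-parameter Hill fit.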

[2] abbreviates: 240 h, Granta-519 cell line, read-out: Proliferation IC50.
Setting [3] is: histone H2A 5 μM, SAM 1 μM, enzyme 5 nM, read-out: PRMT5/MEP50 IC50.

Sequence of PRMT5/MEP50 complex (O14744 whole entry): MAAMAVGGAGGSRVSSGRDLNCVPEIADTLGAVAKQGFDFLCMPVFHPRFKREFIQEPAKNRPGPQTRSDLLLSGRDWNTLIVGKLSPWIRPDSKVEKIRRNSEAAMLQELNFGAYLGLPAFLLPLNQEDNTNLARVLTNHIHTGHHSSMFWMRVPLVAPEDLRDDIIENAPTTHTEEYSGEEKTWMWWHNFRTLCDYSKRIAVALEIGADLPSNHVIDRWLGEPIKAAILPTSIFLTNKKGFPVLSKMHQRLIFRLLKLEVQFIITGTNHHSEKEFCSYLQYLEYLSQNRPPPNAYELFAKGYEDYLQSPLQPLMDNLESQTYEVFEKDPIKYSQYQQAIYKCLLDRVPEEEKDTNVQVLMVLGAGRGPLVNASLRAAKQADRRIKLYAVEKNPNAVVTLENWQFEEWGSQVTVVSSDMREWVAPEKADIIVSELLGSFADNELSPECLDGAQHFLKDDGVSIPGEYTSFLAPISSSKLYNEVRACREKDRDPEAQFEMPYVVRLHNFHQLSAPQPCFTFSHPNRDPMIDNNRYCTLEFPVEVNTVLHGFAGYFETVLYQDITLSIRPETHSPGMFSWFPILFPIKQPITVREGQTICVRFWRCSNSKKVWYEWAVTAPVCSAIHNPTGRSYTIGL
Sequence of PRMT5/MEP50 complex (Q9BQA1 whole entry partner): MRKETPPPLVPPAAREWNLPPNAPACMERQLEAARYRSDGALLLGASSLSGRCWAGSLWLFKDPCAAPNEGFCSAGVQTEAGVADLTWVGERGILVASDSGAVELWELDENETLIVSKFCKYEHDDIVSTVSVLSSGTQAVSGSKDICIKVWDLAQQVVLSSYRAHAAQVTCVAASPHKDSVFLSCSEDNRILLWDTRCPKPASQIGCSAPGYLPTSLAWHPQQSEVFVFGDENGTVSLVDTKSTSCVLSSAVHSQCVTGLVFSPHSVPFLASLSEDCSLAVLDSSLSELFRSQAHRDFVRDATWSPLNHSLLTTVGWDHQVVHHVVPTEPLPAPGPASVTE

For the molecule `CO/N=c1\nc[nH]c2c1ccn2[C@@H]1C[C@H](CCc2ccc3ccc(NCC4CC4)nc3c2)[C@@H](O)[C@H]1O` [Example 90-B, 7-((1R,2S,3R,4S)-4-(2-(2-((cyclopropylmethyl)amino)quinolin-7-yl)ethyl)-2,3-dihydroxycyclopentyl)-1,7-dihydro-4H-pyrrolo[2,3-d]pyrimidin-4-one O-methyl oxime], the IC50 with Granta-519 cells (Granta-519, 240 h, Granta cell line, read-out: Prolif. IC50) came to 229 nM; in test [1] (Granta-519, 72 h, Granta cell line), 28 nM; at PRMT5/MEP50 complex (biochemical potency, read-out: PRTMT5/MEP50 IC50), 0.82 nM.

As for `CCO/N=c1/nc[nH]c2c1ccn2[C@@H]1O[C@H]([C@](C)(O)c2ccc(Cl)c(Cl)c2)[C@@H](O)[C@H]1O` [Example 99, 7-((2R,3R,4S,5S)-5-((R)-1-(3,4-dichlorophenyl)-1-hydroxyethyl)-3,4-dihydroxytetrahydrofuran-2-yl)-1,7-dihydro-4H-pyrrolo[2,3-d]pyrimidin-4-one O-ethyl oxime], the IC50 is 94 nM with Granta-519 cells (setting [2]); 8.4 nM in test [1] (72 h, Granta-519 cell line); 2.4 nM at PRMT5/MEP50 complex (setting [3]).

As for `O[C@@H]1[C@H](O)[C@@H]([C@H](O)c2ccc(Cl)c(Cl)c2)O[C@H]1n1ccc2/c(=N/OCC(F)(F)F)nc[nH]c21` [Example 103, 7-((2R,3R,4S,5R)-5-((R)-(3,4-dichlorophenyl)(hydroxy)methyl)-3,4-dihydroxytetrahydrofuran-2-yl)-1,4a,7,7a-tetrahydro-4H-pyrrolo[2,3-d]pyrimidin-4-one 0-(2,2,2-trifluoroethyl) oxime], the IC50 in the test with Granta-519 cells (setting [2]) turned out to be 62 nM; in test [1] (72 h, Granta-519 cell line) it was 57.9 nM; at PRMT5/MEP50 complex (setting [3]), 29.6 nM.

Turning to `C[C@@](O)(c1ccc(Cl)c(Cl)c1)[C@H]1O[C@@H](n2cnc3/c(=N/O)nc[nH]c32)[C@H](O)[C@@H]1O` [Example 108, 9-((2R,3R,4S,5S)-5-((R)-1-(3,4-dichlorophenyl)-1-hydroxyethyl)-3,4-dihydroxytetrahydrofuran-2-yl)-3,9-dihydro-6H-purin-6-one oxime], the IC50 worked out at 415 nM in the test on Granta-519 cells (setting [2]); 131 nM in test [1] (72 h, Granta-519 cell line); 9.6 nM at PRMT5/MEP50 complex.

With `N/N=c1/nc[nH]c2c1ccn2[C@@H]1O[C@H]([C@H](O)c2ccc(Cl)cc2)[C@@H](O)[C@H]1O` [compound 20, 7-[(2R,3R,4S,5R)-5-[(R)-(4-chlorophenyl)-hydroxy-methyl]-3,4-dihydroxy-tetrahydrofuran-2-yl]-1H-pyrrolo[2,3-d]pyrimidin-4-one hydrazone], the IC50 was determined as 98 nM in the test with Granta-519 cells (setting [2]); 120000 nM in test [1] (72 h, Granta-519 cell line); 0.6 nM at PRMT5/MEP50 complex (setting [3]).

Regarding `O/N=c1/nc[nH]c2c1ccn2[C@@H]1O[C@H]([C@H](O)c2ccc(Cl)cc2)[C@@H](O)[C@H]1O` [compound 37, 7-[(2R,3R,4S,5R)-5-[(R)-(4-chlorophenyl)-hydroxy-methyl]-3,4-dihydroxy-tetrahydrofuran-2-yl]-1H-pyrrolo[2,3-d]pyrimidin-4-one oxime hydrochloride], the IC50 stood at 22 nM in the test on Granta-519 cells (setting [2]); 8 nM in test [1] (72 h, Granta-519 cell line); 2.4 nM at PRMT5/MEP50 complex (setting [3]).

`CO/N=c1\nc[nH]c2c1ccn2[C@@H]1O[C@H]([C@](C)(O)c2ccc(Cl)c(Cl)c2)[C@@H](O)[C@H]1O` [compound 61, 7-((2R,3R,4S,5S)-5-((R)-1-(3,4-dichlorophenyl)-1-hydroxyethyl)-3,4-dihydroxytetrahydrofuran-2-yl)-1,7-dihydro-4H-pyrrolo[2,3-d]pyrimidin-4-one O-methyl oxime]: the IC50 was determined as 47 nM in the test with Granta-519 cells (setting [2]); 33 nM in test [1] (72 h, Granta-519 cell line); 2.6 nM at PRMT5/MEP50 complex (setting [3]).

Turning to `CO/N=c1/nc[nH]c2c1ccn2[C@@H]1O[C@H]([C@H](O)c2ccc(Cl)c(F)c2)[C@@H](O)[C@H]1O` [compound 62, 7-((2R,3R,4S,5R)-5-((R)-(4-chloro-3-fluorophenyl)(hydroxy)methyl)-3,4-dihydroxytetrahydrofuran-2-yl)-1,7-dihydro-4H-pyrrolo[2,3-d]pyrimidin-4-one O-methyl oxime], the IC50 in the test on Granta-519 cells (setting [2]) amounted to 63 nM; in test [1] (72 h, Granta-519 cell line) it was 45 nM; on PRMT5/MEP50 complex (setting [3]), 8.6 nM.

Regarding `CO/N=c1\nc[nH]c2c1ccn2[C@@H]1O[C@H]([C@H](O)c2ccc(Cl)c(Cl)c2)[C@@H](O)[C@H]1O` [compound 69, 7-((2R,3R,4S,5R)-5-((R)-(3,4-dichlorophenyl)(hydroxy)methyl)-3,4-dihydroxytetrahydrofuran-2-yl)-1,7-dihydro-4H-pyrrolo[2,3-d]pyrimidin-4-one O-methyl oxime hydrochloride], the IC50 with Granta-519 cells (setting [2]) is 32 nM; in test [1] (72 h, Granta-519 cell line), 28 nM; at PRMT5/MEP50 complex (setting [3]), 1.8 nM.

On to `CO/N=c1/nc[nH]c2c1ccn2[C@@H]1O[C@H]([C@H](O)c2ccc(C(F)(F)F)c(F)c2)[C@@H](O)[C@H]1O` [compound 78, 7-((2R,3R,4S,5R)-5-((R)-(3-fluoro-4-(trifluoromethyl)phenyl)(hydroxy)methyl)-3,4-dihydroxytetrahydrofuran-2-yl)-1,7-dihydro-4H-pyrrolo[2,3-d]pyrimidin-4-one O-methyl oxime], for which the IC50 in test [1] (72 h, Granta-519 cell line) amounted to 33 nM; on PRMT5/MEP50 complex (setting [3]) it was 3.1 nM.

With `CO/N=c1/nc[nH]c2c1ccn2[C@@H]1O[C@H]([C@H](O)c2ccc(Cl)c(C)c2)[C@@H](O)[C@H]1O` [compound 80, 7-((2R,3R,4S,5R)-5-((R)-(4-chloro-3-methylphenyl)(hydroxy)methyl)-3,4-dihydroxytetrahydrofuran-2-yl)-1,7-dihydro-4H-pyrrolo[2,3-d]pyrimidin-4-one O-methyl oxime], the IC50 worked out at 18 nM in test [1] (72 h, Granta-519 cell line) and 0.7 nM at PRMT5/MEP50 complex (setting [3]).

On to `CN/N=c1\nc[nH]c2c1ccn2[C@@H]1O[C@H]([C@H](O)c2ccc(Cl)c(Cl)c2)[C@@H](O)[C@H]1O` [compound 81, (2R,3S,4R,5R)-2-((R)-(3,4-dichlorophenyl)(hydroxy)methyl)-5-(4-(2-methylhydrazineylidene)-1,4-dihydro-7H-pyrrolo[2,3-d]pyrimidin-7-yl)tetrahydrofuran-3,4-diol], for which the IC50 in test [1] (72 h, Granta-519 cell line) was 9 nM; on PRMT5/MEP50 complex (setting [3]) it was 0.3 nM.

Turning to `CCO/N=c1/[nH]cnc2c1ccn2[C@@H]1O[C@H]([C@H](O)c2ccc(Cl)c(Cl)c2)[C@@H](O)[C@H]1O` [compound 82, 7-((2R,3R,4S,5R)-5-((R)-(3,4-dichlorophenyl)(hydroxy)methyl)-3,4-dihydroxytetrahydrofuran-2-yl)-3,7-dihydro-4H-pyrrolo[2,3-d]pyrimidin-4-one O-ethyl oxime], the IC50 in test [1] (72 h, Granta-519 cell line) stood at 11 nM; at PRMT5/MEP50 complex (setting [3]), 3.9 nM.

The record behind these values is US11220524B2, “Selective inhibitors of protein arginine methyltransferase 5 (PRMT5)” (PRELUDE THERAPEUTICS, INCORPORATED, priority 2017, dated 2022).
